From patent US9228178B2, “Engineering of xylose reductase and overexpression of xylitol dehydrogenase and xylulokinase improves xylose alcoholic fermentation in the thermotolerant yeast Hansenula polymorpha” (Archer Daniels Midland Co., priority 2008, dated 2016)

What was measured:
[1] = biological target: T1, Hansenula polymorpha xylose reductase (XR) variant XRm, K341R N343D, cofactor binding site SEQ ID NO: 2 (Ogataea polymorpha, UniProt A0A1B7SLF1, K271R/N273D); assay: KM towards NADPH or NADH of engineered xylose reductase (XRm), spectrophotometric XR assay in cell extract; conditions: XRm vs native XR
T1 sequence (A0A1B7SLF1 with tags, fused parts or gaps K271R/N273D): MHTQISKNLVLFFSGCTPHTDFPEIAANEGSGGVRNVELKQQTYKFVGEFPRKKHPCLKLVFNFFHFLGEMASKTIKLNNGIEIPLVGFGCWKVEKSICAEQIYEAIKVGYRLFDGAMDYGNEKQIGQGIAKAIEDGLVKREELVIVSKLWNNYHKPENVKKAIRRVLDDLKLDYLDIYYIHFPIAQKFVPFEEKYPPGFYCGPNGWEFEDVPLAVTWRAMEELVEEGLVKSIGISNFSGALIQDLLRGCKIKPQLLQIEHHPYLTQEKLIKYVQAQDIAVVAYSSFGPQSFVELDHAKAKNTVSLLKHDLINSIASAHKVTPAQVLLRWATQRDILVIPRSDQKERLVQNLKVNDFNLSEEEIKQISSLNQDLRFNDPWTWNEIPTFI
Protocol: The XR activity in cell extracts was determined spectrophotometrically at 37° C. […] The reaction was started with cell extract addition.
Biochemical properties of XR in one of constructed recombinant strains (designated XRm) were studied.

[2] = biological target: T2, Hansenula polymorpha xylose reductase (XR), native (XRn), cofactor binding site SEQ ID NO: 1 (Ogataea polymorpha, UniProt A0A1B7SLF1); assay: KM towards NADPH or NADH of native xylose reductase (XRn), spectrophotometric XR assay in cell extract; type: biochemical; conditions: dual cofactor specificity
T2 construct: native XYL1 ORF from CBS4732 genomic DNA, HpGAP promoter (pX1N-Z), overexpressed in H. polymorpha Δxyl1; cell extract
T2 sequence (A0A1B7SLF1 with tags, fused parts or gaps): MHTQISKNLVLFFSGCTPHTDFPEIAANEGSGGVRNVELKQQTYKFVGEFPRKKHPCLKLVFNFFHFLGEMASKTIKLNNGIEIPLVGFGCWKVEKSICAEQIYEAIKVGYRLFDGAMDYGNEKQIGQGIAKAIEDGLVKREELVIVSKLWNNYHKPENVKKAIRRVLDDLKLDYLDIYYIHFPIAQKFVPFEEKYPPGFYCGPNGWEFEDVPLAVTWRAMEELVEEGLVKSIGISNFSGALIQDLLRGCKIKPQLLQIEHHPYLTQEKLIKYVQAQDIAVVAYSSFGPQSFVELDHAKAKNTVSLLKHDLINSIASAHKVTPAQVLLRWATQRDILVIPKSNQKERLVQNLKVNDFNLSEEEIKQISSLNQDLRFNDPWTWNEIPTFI
Protocol: (§1) The XR activity in cell extracts was determined spectrophotometrically at 37° C. […] The reaction was started with cell extract addition [3].

[3] = substrate: NC(=O)C1=CN([C@@H]2O[C@H](COP(=O)(O)OP(=O)(O)OC[C@H]3O[C@@H](n4cnc5c(N)ncnc54)[C@H](O)[C@@H]3O)[C@@H](O)[C@H]2O)C=CC1; assay: cells, lysate or membranes; conditions: other: XRm, 37° C., pH 7.0, xylose 350 mM, NADH 20-150 μM
Protocol: as §1

[4] = substrate: NC(=O)C1=CN([C@@H]2O[C@H](COP(=O)(O)OP(=O)(O)OC[C@H]3O[C@@H](n4cnc5c(N)ncnc54)[C@H](OP(=O)(O)O)[C@@H]3O)[C@@H](O)[C@H]2O)C=CC1; assay: cells, lysate or membranes; conditions: xylose as substrate, 37° C., pH 7.0, xylose 350 mM, NADPH 20-150 μM

NC(=O)C1=CN([C@@H]2O[C@H](COP(=O)(O)OP(=O)(O)OC[C@H]3O[C@@H](n4cnc5c(N)ncnc54)[C@H](O)[C@@H]3O)[C@@H](O)[C@H]2O)C=CC1 [NADH]
KM for NADH, compared with native XR (in words) [1]: remained nearly unchanged

NC(=O)C1=CN([C@@H]2O[C@H](COP(=O)(O)OP(=O)(O)OC[C@H]3O[C@@H](n4cnc5c(N)ncnc54)[C@H](OP(=O)(O)O)[C@@H]3O)[C@@H](O)[C@H]2O)C=CC1 [NADPH]
cofactor preference for NADPH (over NADH) [2]: > 10 fold
KM for NADPH, change against native XR (in words) [1]: significant increase
KM for NADPH, times higher than the KM for NADPH of the native XR ([1]; xylose as substrate): 17 times

B1: Hansenula polymorpha xylose reductase (XR) variant XRm, K341R N343D, cofactor binding site SEQ ID NO: 2 (Ogataea polymorpha; K271R/N273D) (protein)
chain: MHTQISKNLVLFFSGCTPHTDFPEIAANEGSGGVRNVELKQQTYKFVGEFPRKKHPCLKLVFNFFHFLGEMASKTIKLNNGIEIPLVGFGCWKVEKSICAEQIYEAIKVGYRLFDGAMDYGNEKQIGQGIAKAIEDGLVKREELVIVSKLWNNYHKPENVKKAIRRVLDDLKLDYLDIYYIHFPIAQKFVPFEEKYPPGFYCGPNGWEFEDVPLAVTWRAMEELVEEGLVKSIGISNFSGALIQDLLRGCKIKPQLLQIEHHPYLTQEKLIKYVQAQDIAVVAYSSFGPQSFVELDHAKAKNTVSLLKHDLINSIASAHKVTPAQVLLRWATQRDILVIPRSDQKERLVQNLKVNDFNLSEEEIKQISSLNQDLRFNDPWTWNEIPTFI
Km [3]: 112 µM
Km ([4]; other: XRm): 152 µM

B2: Hansenula polymorpha xylose reductase (XR), native (XRn), cofactor binding site SEQ ID NO: 1 (Ogataea polymorpha) (protein)
chain: MHTQISKNLVLFFSGCTPHTDFPEIAANEGSGGVRNVELKQQTYKFVGEFPRKKHPCLKLVFNFFHFLGEMASKTIKLNNGIEIPLVGFGCWKVEKSICAEQIYEAIKVGYRLFDGAMDYGNEKQIGQGIAKAIEDGLVKREELVIVSKLWNNYHKPENVKKAIRRVLDDLKLDYLDIYYIHFPIAQKFVPFEEKYPPGFYCGPNGWEFEDVPLAVTWRAMEELVEEGLVKSIGISNFSGALIQDLLRGCKIKPQLLQIEHHPYLTQEKLIKYVQAQDIAVVAYSSFGPQSFVELDHAKAKNTVSLLKHDLINSIASAHKVTPAQVLLRWATQRDILVIPKSNQKERLVQNLKVNDFNLSEEEIKQISSLNQDLRFNDPWTWNEIPTFI
Km ([4]; other: native XR): 9 µM
